Molecular target: human Cat S (Homo sapiens (Human), UniProt P25774)
Experiment: Cathepsin enzyme inhibition assay (fluorogenic peptide substrate)
Format: biochemical
Conditions: human Cat S, enzyme 1 nM, substrate Z-Val-Val-Arg-AMC, pH 6.5; read-out: CatS IC50
Method: Cathepsin Enzyme Inhibition Assay
Enzyme activity is measured by observing the increase in fluorescence intensity caused by cleavage of a peptide substrate containing a fluorophore whose emission is quenched in the intact peptide.
Assay buffer: 100 mM potassium phosphate pH 6.5, EDTA-Na 5 mM, Triton X-100 0.001%, DTT 5 mM.
Enzymes (all at 1 nM): human and mouse Cathepsin S, Cat K, Cat B, Cat L.
Substrate ([…], except for Cat K which uses Z-Leu-Arg-AMC (both from Bachem).
Excitation 360 nm, Emission 465 nm.
Enzyme is added to the substance dilutions in 96-well microtitre plates and the reaction is started with substrate. […] IC50 are calculated by standard methods.
Inhibition of human Cat S, mouse Cat S, human Cat K, mouse Cat K, human Cat B, mouse Cat B, human Cat L and mouse Cat L have been measured separately.

Chain of human Cat S (P25774 115-331): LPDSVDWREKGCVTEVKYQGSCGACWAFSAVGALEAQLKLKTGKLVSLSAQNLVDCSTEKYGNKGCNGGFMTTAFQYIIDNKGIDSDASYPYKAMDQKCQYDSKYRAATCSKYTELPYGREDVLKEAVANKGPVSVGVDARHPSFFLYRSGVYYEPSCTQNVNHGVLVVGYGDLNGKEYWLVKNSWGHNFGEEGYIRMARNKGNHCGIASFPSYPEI

Molecule | IC50
Cc1[nH]c(-c2ccc(C(F)(F)F)cc2)nc1CN1CCC(n2c(=O)[nH]c3ccc(N4CCCC4)cc32)CC1 [Example 9, 1-{1-[5-Methyl-2-(4-trifluoromethyl-phenyl)-1H-imidazol-4-ylmethyl]-piperidin-4-yl}-6-pyrrolidin-1-yl-1,3-dihydro-benzoimidazol-2-one] | 0.19 µM
O=C1Nc2ccc(Br)cc2CN1C1CCN(Cc2cnc(-c3ccc(C(F)(F)F)cc3)[nH]2)CC1 [Example 17, 6-Bromo-3-[1-[[2-[4-(trifluoromethyl)phenyl]-1H-imidazol-5-yl]methyl]-4-piperidyl]-1,4-dihydroquinazolin-2-one] | 0.195 µM
Cc1[nH]c(-c2ccc(C(F)(F)F)cc2)nc1CN1CCC(c2c[nH]c3ccncc23)CC1 [Example 63, 3-{1-[5-Methyl-2-(4-trifluoromethyl-phenyl)-1H-imidazol-4-ylmethyl]-piperidin-4-yl}-1H-pyrrolo[3,2-c]pyridine] | 0.667 µM
Cc1[nH]c(-c2ccc(C(F)(F)F)cc2)nc1CN1CCC(n2c(=O)n(CC(=O)O)c3cc(Cl)ccc32)CC1 [Example 34, (6-Chloro-3-{1-[5-methyl-2-(4-trifluoromethyl-phenyl)-1H-imidazol-4-ylmethyl]-piperidin-4-yl}-2-oxo-2,3-dihydro-benzoimidazol-1-yl)-acetic acid] | 0.93 µM
Cc1[nH]c(-c2ccc(S(=O)(=O)C(F)(F)F)cc2)nc1CN1CCC(n2c(=O)n(C)c3ccccc32)CC1 [Example 75, 1-Methyl-3-{1-[5-methyl-2-(4-trifluoromethanesulfonyl-phenyl)-1H-imidazol-4-ylmethyl]-piperidin-4-yl}-1,3-dihydro-benzoimidazol-2-one] | 0.06 µM
Cc1[nH]c(-c2ccc(C(F)(F)F)c(Cl)c2)nc1CN1CCC(N2Cc3ccc(F)cc3NC2=O)CC1 [Example 45, 3-{1-[2-(3-Chloro-4-trifluoromethyl-phenyl)-5-methyl-1H-imidazol-4-ylmethyl]-piperidin-4-yl}-7-fluoro-3,4-dihydro-1H-quinazolin-2-one] | 0.11 µM
Cc1nn(-c2ccc(C(F)(F)F)cc2)cc1CN1CCC(N2Cc3ccccc3NC2=O)CC1 [Example 52, 3-{1-[3-Methyl-1-(4-trifluoromethyl-phenyl)-1H-pyrazol-4-ylmethyl]-piperidin-4-yl}-3,4-dihydro-1H-quinazolin-2-one] | 1.38 µM
Cc1[nH]c(-c2ccc(Cl)cc2Cl)nc1CN1CCC(N2Cc3ccccc3NC2=O)CC1 [Example 57, 3-{1-[2-(2,4-Dichloro-phenyl)-5-methyl-1H-imidazol-4-ylmethyl]-piperidin-4-yl}-3,4-dihydro-1H-quinazolin-2-one] | 0.995 µM
Cc1[nH]c(-c2ccc(Cl)c(Cl)c2)nc1CN1CCC(c2c[nH]c3ncccc23)CC1 [Example 49, 3-{1-[2-(3,4-Dichloro-phenyl)-5-methyl-1H-imidazol-4-ylmethyl]-piperidin-4-yl}-1H-pyrrolo[2,3-b]pyridine] | 1.2 µM
O=C1Nc2ccccc2CN1C1CCN(Cc2nc(-c3ccc(C(F)(F)F)cc3)[nH]c2Cc2ccccc2)CC1 [Example 56, 3-{1-[5-Benzyl-2-(4-trifluoromethyl-phenyl)-1H-imidazol-4-ylmethyl]-piperidin-4-yl}-3,4-dihydro-1H-quinazolin-2-one] | 0.225 µM
COCCN1C(=O)N(C2CCN(Cc3nc(-c4ccc(C(F)(F)F)cc4)[nH]c3C)CC2)Cc2ccccc21 [Example 54, 1-(2-Methoxy-ethyl)-3-{1-[5-methyl-2-(4-trifluoromethyl-phenyl)-1H-imidazol-4-ylmethyl]-piperidin-4-yl}-3,4-dihydro-1H-quinazolin-2-one] | 0.135 µM
Cc1[nH]c(-c2ccc(C(F)(F)F)cc2)nc1CN1CCC(N2Cc3ccccc3N(C)C2=O)CC1 [Example 53, 1-Methyl-3-{1-[5-methyl-2-(4-trifluoromethyl-phenyl)-1H-imidazol-4-ylmethyl]-piperidin-4-yl}-3,4-dihydro-1H-quinazolin-2-one] | 0.145 µM
CNC(=O)Cn1c(=O)n(C2CCN(Cc3nc(-c4ccc(C(F)(F)F)cc4)[nH]c3C)CC2)c2ccc(Cl)cc21 [Example 32, 2-(6-Chloro-3-{1-[5-methyl-2-(4-trifluoromethyl-phenyl)-1H-imidazol-4-ylmethyl]-piperidin-4-yl}-2-oxo-2,3-dihydro-benzoimidazol-1-yl)-N-methyl-acetamide] | 0.33 µM
Cc1[nH]c(-c2ccc(C(F)(F)F)cc2)nc1CN1CCC(N2Cc3ccccc3NC2=O)CC1 [Example 28, 3-{1-[5-Methyl-2-(4-trifluoromethyl-phenyl)-1H-imidazol-4-ylmethyl]-piperidin-4-yl}-3,4-dihydro-1H-quinazolin-2-one] | 0.19 µM
Cc1[nH]c(-c2ccc(Cl)c(Cl)c2)nc1CN1CCC(N2Cc3ccc(F)cc3NC2=O)CC1 [Example 48, 3-{1-[2-(3,4-Dichloro-phenyl)-5-methyl-1H-imidazol-4-ylmethyl]-piperidin-4-yl}-7-fluoro-3,4-dihydro-1H-quinazolin-2-one] | 0.45 µM
Cc1[nH]c(-c2ccc(S(=O)(=O)C(F)(F)F)cc2)nc1CN1CCC(N2Cc3ccccc3NC2=O)CC1 [Example 72, 3-{1-[5-Methyl-2-(4-trifluoromethanesulfonyl-phenyl)-1H-imidazol-4-ylmethyl]-piperidin-4-yl}-3,4-dihydro-1H-quinazolin-2-one] | 0.024 µM
Cc1[nH]c(-c2ccc(C(F)(F)F)cc2)nc1CN1CCC(n2c(=O)[nH]c3ccc(N4CCOCC4)cc32)CC1 [Example 10, 1-{1-[5-Methyl-2-(4-trifluoromethyl-phenyl)-1H-imidazol-4-ylmethyl]-piperidin-4-yl}-6-morpholin-4-yl-1,3-dihydro-benzoimidazol-2-one] | 0.28 µM
5-(4-Bromophenyl)-3-[1-[[2-[4-(trifluoromethyl)phenyl]-1H-imidazol-5-yl]methyl]-4-piperidyl]-1H-imidazol-2-one [Example 15] | 4.56 µM
COC(=O)Cn1c(=O)n(C2CCN(Cc3nc(-c4ccc(C(F)(F)F)cc4)[nH]c3C)CC2)c2ccc(Cl)cc21 [Example 33, (6-Chloro-3-{1-[5-methyl-2-(4-trifluoromethyl-phenyl)-1H-imidazol-4-ylmethyl]-piperidin-4-yl}-2-oxo-2,3-dihydro-benzoimidazol-1-yl)-acetic acid methyl ester] | 0.13 µM
Cc1[nH]c(-c2ccc(S(=O)(=O)Cc3ccccc3)cc2)nc1CN1CCC(n2c(=O)n(C)c3ccccc32)CC1 [Example 81, 1-Methyl-3-{1-[5-methyl-2-(4-phenylmethanesulfonyl-phenyl)-1H-imidazol-4-ylmethyl]-piperidin-4-yl}-1,3-dihydro-benzoimidazol-2-one] | 0.17 µM
CCCc1[nH]c(-c2ccc(C(F)(F)F)cc2)nc1CN1CCC(n2c(=O)n(C)c3ccccc32)CC1 [Example 64, 1-Methyl-3-{1-[5-propyl-2-(4-trifluoromethyl-phenyl)-1H-imidazol-4-ylmethyl]-piperidin-4-yl}-1,3-dihydro-benzoimidazol-2-one] | 0.928 µM
COCCn1c(=O)n(C2CCN(Cc3nc(-c4ccc(C(F)(F)F)cc4)[nH]c3C)CC2)c2ccc(Cl)cc21 [Example 27, 5-Chloro-3-(2-methoxy-ethyl)-1-{1-[5-methyl-2-(4-trifluoromethyl-phenyl)-1H-imidazol-4-ylmethyl]-piperidin-4-yl}-1,3-dihydro-benzoimidazol-2-one] | 0.22 µM
Cc1[nH]c(-c2ccc(C(F)(F)F)cc2)nc1CN1CCC(n2c(=O)n(CCS(C)(=O)=O)c3cc(Cl)ccc32)CC1 [Example 35, 5-Chloro-3-(2-methanesulfonyl-ethyl)-1-{1-[5-methyl-2-(4-trifluoromethyl-phenyl)-1H-imidazol-4-ylmethyl]-piperidin-4-yl}-1,3-dihydro-benzoimidazol-2-one] | 0.257 µM
Cc1[nH]c(-c2ccc(C(F)(F)F)cc2)nc1CN1CCC(n2c(=O)n(C)c3cc(Cl)ccc32)CC1 [Example 18, 5-Chloro-3-methyl-1-{1-[5-methyl-2-(4-trifluoromethyl-phenyl)-1H-imidazol-4-ylmethyl]-piperidin-4-yl}-1,3-dihydro-benzoimidazol-2-one] | 0.195 µM
Cn1nc(CN2CCC(N3Cc4ccccc4NC3=O)CC2)nc1-c1ccc(C(F)(F)F)cc1 [Example 66, 3-{1-[1-Methyl-5-(4-trifluoromethyl-phenyl)-1H-[1,2,4]triazol-3-ylmethyl]-piperidin-4-yl}-3,4-dihydro-1H-quinazolin-2-one] | 0.45 µM
Cc1[nH]c(-c2ccc(C(F)(F)F)c(F)c2)nc1CN1CCC(N2Cc3ccccc3NC2=O)CC1 [Example 47, 3-{1-[2-(3-Fluoro-4-trifluoromethyl-phenyl)-5-methyl-1H-imidazol-4-ylmethyl]-piperidin-4-yl}-3,4-dihydro-1H-quinazolin-2-one] | 0.145 µM
Cc1[nH]c(-c2ccc(S(C)(=O)=O)cc2)nc1CN1CCC(N2Cc3ccccc3NC2=O)CC1 [Example 74, 3-{1-[2-(4-Methanesulfonyl-phenyl)-5-methyl-1H-imidazol-4-ylmethyl]-piperidin-4-yl}-3,4-dihydro-1H-quinazolin-2-one] | 0.094 µM
Cc1c(CN2CCC(n3c(=O)n(C)c4ccccc43)CC2)nc(-c2ccc(C(F)(F)F)cc2)n1C [Example 70, 1-{1-[1,5-Dimethyl-2-(4-trifluoromethyl-phenyl)-1H-imidazol-4-ylmethyl]-piperidin-4-yl}-3-methyl-1,3-dihydro-benzoimidazol-2-one] | 0.245 µM
O=c1[nH]ccc2c1ncn2C1CCN(Cc2cnc(-c3ccc(C(F)(F)F)cc3)[nH]2)CC1 [Example 14, 1-[1-[[2-[4-(Trifluoromethyl)phenyl]-1H-imidazol-5-yl]methyl]-4-piperidyl]-5H-imidazo[4,5-c]pyridin-4-one] | 4.32 µM

Source: patent US10172843B2, “Piperidine derivatives” (Hoffmann-La Roche Inc., priority 2014, dated 2019)
